Source: the supplement of paper PMC10307832

What was measured:
Experiment in all cases: relative viability (nuclei count vs DMSO), 5 days (fraction); higher = more cells survive
AZ628 + Alpelisib = compound: CC1=C(C=C(C=C1)NC(=O)C2=CC(=CC=C2)C(C)(C)C#N)NC3=CC4=C(C=C3)N=CN(C4=O)C [AZ628] + Cc1nc(NC(=O)N2CCC[C@H]2C(N)=O)sc1-c1ccnc(C(C)(C)C(F)(F)F)c1 [Alpelisib] (partner 2 µM)
Outline: (§1)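 Relative viability divides the nuclei count in treated wells by that in vehicle wells. Lung cancer cell lines were seeded in 1536-well plates, dosed by pin tool the next day, and fixed and stained after 5 days in one step with final 0.05% Triton X-100, 1% formaldehyde and 1 ug/ml Hoechst. Dosing was a single drug or a fixed anchor-drug dose plus five library-drug doses (not always all listed) in √10 steps, and values are medians of duplicate plates imaged at 4×.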

QS11 + Decitabine = compound: C1CC2=C(C1)C=C(C=C2)OC3=NC(=C4C(=N3)N(C=N4)CC5=CC=C(C=C5)C6=CC=CC=C6)N[C@@H](CC7=CC=CC=C7)CO [QS11] + Nc1ncn([C@H]2C[C@H](O)[C@@H](CO)O2)c(=O)n1 [Decitabine] (partner 2 µM)
Outline: as §1

QS11 + Phenformin = compound: C1CC2=C(C1)C=C(C=C2)OC3=NC(=C4C(=N3)N(C=N4)CC5=CC=C(C=C5)C6=CC=CC=C6)N[C@@H](CC7=CC=CC=C7)CO [QS11] + N=C(N)NC(=N)NCCc1ccccc1 [Phenformin] (partner 250 µM)
Outline: as §1

Darinaparsin + Lapatinib = compound: C[As](C)SC[C@H](NC(=O)CC[C@H](N)C(=O)O)C(=O)NCC(=O)O [Darinaparsin] + CS(=O)(=O)CCNCc1ccc(-c2ccc3ncnc(Nc4ccc(OCc5cccc(F)c5)c(Cl)c4)c3c2)o1 [Lapatinib] (partner 2 µM)
Outline: as §1

Cell Line: BEN
- relative viability (AZ628 + Alpelisib; first compound 0.08 µM): 1.22
- relative viability (AZ628 + Alpelisib; first compound 0.253 µM): 0.87
- relative viability (AZ628 + Alpelisib; first compound 0.8 µM): 0.791
- relative viability (AZ628 + Alpelisib; first compound 2.53 µM): 0.963
- relative viability (AZ628 + Alpelisib; first compound 8 µM): 0.835
- relative viability (QS11 + Decitabine; first compound 0.08 µM): 0.717
- relative viability (QS11 + Decitabine; first compound 0.253 µM): 0.775
- relative viability (QS11 + Decitabine; first compound 0.8 µM): 0.74
- relative viability (QS11 + Decitabine; first compound 2.53 µM): 0.713
- relative viability (QS11 + Decitabine; first compound 8 µM): 0.695
- relative viability (QS11 + Phenformin; first compound 0.08 µM): 0.262
- relative viability (QS11 + Phenformin; first compound 0.253 µM): 0.3
- relative viability (QS11 + Phenformin; first compound 0.8 µM): 0.29
- relative viability (QS11 + Phenformin; first compound 2.53 µM): 0.258
- relative viability (QS11 + Phenformin; first compound 8 µM): 0.251
- relative viability (Darinaparsin + Lapatinib; first compound 0.08 µM): 0.844
- relative viability (Darinaparsin + Lapatinib; first compound 0.8 µM): 0.77
- relative viability (Darinaparsin + Lapatinib; first compound 2.53 µM): 0.671
- relative viability (Darinaparsin + Lapatinib; first compound 8 µM): 0.743

Cell Line: NCI-H520
- relative viability (AZ628 + Alpelisib; first compound 0.08 µM): 0.908
- relative viability (AZ628 + Alpelisib; first compound 0.253 µM): 0.826
- relative viability (AZ628 + Alpelisib; first compound 0.8 µM): 0.733
- relative viability (AZ628 + Alpelisib; first compound 2.53 µM): 0.819
- relative viability (AZ628 + Alpelisib; first compound 8 µM): 0.52
- relative viability (QS11 + Decitabine; first compound 0.08 µM): 0.567
- relative viability (QS11 + Decitabine; first compound 0.253 µM): 0.513
- relative viability (QS11 + Decitabine; first compound 0.8 µM): 0.531
- relative viability (QS11 + Decitabine; first compound 2.53 µM): 0.537
- relative viability (QS11 + Decitabine; first compound 8 µM): 0.531
- relative viability (QS11 + Phenformin; first compound 0.08 µM): 0.476
- relative viability (QS11 + Phenformin; first compound 0.253 µM): 0.687
- relative viability (QS11 + Phenformin; first compound 0.8 µM): 0.607
- relative viability (QS11 + Phenformin; first compound 2.53 µM): 0.489
- relative viability (QS11 + Phenformin; first compound 8 µM): 0.574
- relative viability (Darinaparsin + Lapatinib; first compound 0.08 µM): 1.11
- relative viability (Darinaparsin + Lapatinib; first compound 0.8 µM): 0.817
- relative viability (Darinaparsin + Lapatinib; first compound 2.53 µM): 0.802
- relative viability (Darinaparsin + Lapatinib; first compound 8 µM): 0.794

Cell Line: NCI-H2405
- relative viability (AZ628 + Alpelisib; first compound 0.08 µM): 0.313
- relative viability (AZ628 + Alpelisib; first compound 0.253 µM): 0.447
- relative viability (AZ628 + Alpelisib; first compound 0.8 µM): 0.444
- relative viability (AZ628 + Alpelisib; first compound 2.53 µM): 0.352
- relative viability (AZ628 + Alpelisib; first compound 8 µM): 0.406
- relative viability (QS11 + Decitabine; first compound 0.08 µM): 0.793
- relative viability (QS11 + Decitabine; first compound 0.253 µM): 0.714
- relative viability (QS11 + Decitabine; first compound 0.8 µM): 0.706
- relative viability (QS11 + Decitabine; first compound 2.53 µM): 0.906
- relative viability (QS11 + Decitabine; first compound 8 µM): 0.843
- relative viability (QS11 + Phenformin; first compound 0.08 µM): 0.361
- relative viability (QS11 + Phenformin; first compound 0.253 µM): 0.443
- relative viability (QS11 + Phenformin; first compound 0.8 µM): 0.372
- relative viability (QS11 + Phenformin; first compound 2.53 µM): 0.45
- relative viability (QS11 + Phenformin; first compound 8 µM): 0.399
- relative viability (Darinaparsin + Lapatinib; first compound 0.08 µM): 1.04
- relative viability (Darinaparsin + Lapatinib; first compound 0.8 µM): 1.01
- relative viability (Darinaparsin + Lapatinib; first compound 2.53 µM): 1.04
- relative viability (Darinaparsin + Lapatinib; first compound 8 µM): 1.1

Cell Line: NCI-H2087
- relative viability (AZ628 + Alpelisib; first compound 0.08 µM): 0.783
- relative viability (AZ628 + Alpelisib; first compound 0.253 µM): 0.73
- relative viability (AZ628 + Alpelisib; first compound 0.8 µM): 0.62
- relative viability (AZ628 + Alpelisib; first compound 2.53 µM): 0.678
- relative viability (AZ628 + Alpelisib; first compound 8 µM): 0.231
- relative viability (QS11 + Decitabine; first compound 0.08 µM): 0.287
- relative viability (QS11 + Decitabine; first compound 0.253 µM): 0.325
- relative viability (QS11 + Decitabine; first compound 0.8 µM): 0.252
- relative viability (QS11 + Decitabine; first compound 2.53 µM): 0.305
- relative viability (QS11 + Decitabine; first compound 8 µM): 0.299
- relative viability (QS11 + Phenformin; first compound 0.08 µM): 0.479
- relative viability (QS11 + Phenformin; first compound 0.253 µM): 0.46
- relative viability (QS11 + Phenformin; first compound 2.53 µM): 0.521
- relative viability (QS11 + Phenformin; first compound 8 µM): 0.657
- relative viability (Darinaparsin + Lapatinib; first compound 0.08 µM): 1.29
- relative viability (Darinaparsin + Lapatinib; first compound 0.8 µM): 1.02
- relative viability (Darinaparsin + Lapatinib; first compound 2.53 µM): 0.951
- relative viability (Darinaparsin + Lapatinib; first compound 8 µM): 0.997

Cell Line: NCI-H460
- relative viability (AZ628 + Alpelisib; first compound 0.08 µM): 0.459
- relative viability (AZ628 + Alpelisib; first compound 0.253 µM): 0.335
- relative viability (AZ628 + Alpelisib; first compound 0.8 µM): 0.325
- relative viability (AZ628 + Alpelisib; first compound 2.53 µM): 0.271
- relative viability (AZ628 + Alpelisib; first compound 8 µM): 0.13
- relative viability (QS11 + Decitabine; first compound 0.08 µM): 0.578
- relative viability (QS11 + Decitabine; first compound 0.253 µM): 0.477
- relative viability (QS11 + Decitabine; first compound 0.8 µM): 0.298
- relative viability (QS11 + Decitabine; first compound 2.53 µM): 0.503
- relative viability (QS11 + Decitabine; first compound 8 µM): 0.382
- relative viability (QS11 + Phenformin; first compound 0.08 µM): 0.556
- relative viability (QS11 + Phenformin; first compound 0.253 µM): 0.498
- relative viability (QS11 + Phenformin; first compound 0.8 µM): 0.477
- relative viability (QS11 + Phenformin; first compound 2.53 µM): 0.442
- relative viability (QS11 + Phenformin; first compound 8 µM): 0.227
- relative viability (Darinaparsin + Lapatinib; first compound 0.08 µM): 1.03
- relative viability (Darinaparsin + Lapatinib; first compound 0.8 µM): 1.3
- relative viability (Darinaparsin + Lapatinib; first compound 2.53 µM): 0.731
